How the values were obtained:
[1] = molecular target: Voltage-gated inwardly rectifying potassium channel KCNH2 (Homo sapiens, UniProt Q12809)
Description: Displacement of [3H]dofetilide from hERG expressed in HEK293 cell membrane

[2] = molecular target: hERG (KCNH2) (Homo sapiens, UniProt Q12809); test: Inhibition of hERG-mediated tail current expressed in HEK293 cells at 30 uM by patch clamp method; assay type: toxicity, cell-based; conditions: HEK293 cells that express hERG
[3] = AUC (0 to infinity) in DIO mouse plasma at 10 mg/kg, po; assay type: ADME, organism-based; set-up: time infinity, dose 10 mg/kg, route oral
[4] = Cmax in DIO mouse plasma at 10 mg/kg, po; assay type: ADME, organism-based; set-up: dose 10 mg/kg, route oral
[5] = Drug level in DIO mouse plasma at 10 mg/kg, po after 12 hrs; assay type: ADME, organism-based; set-up: dose 10 mg/kg, route oral
[6] = Half life in DIO mouse plasma at 10 mg/kg, po; assay type: ADME, organism-based; set-up: dose 10 mg/kg, route oral
[7] = system: Mus musculus; test: AUC (0 to infinity) in DIO mouse brain at 10 mg/kg, po; assay type: ADME, organism-based; set-up: time infinity, dose 10 mg/kg, route oral; conditions: in vivo
[8] = Cmax in DIO mouse brain at 10 mg/kg, po; assay type: ADME, organism-based; set-up: dose 10 mg/kg, route oral
[9] = Drug level in DIO mouse brain at 10 mg/kg, po after 12 hrs; assay type: ADME, organism-based; set-up: dose 10 mg/kg, route oral; conditions: read-out: Drug uptake
[10] = Half life in DIO mouse brain at 10 mg/kg, po; assay type: ADME, organism-based; set-up: dose 10 mg/kg, route oral

Sequence of Voltage-gated inwardly rectifying potassium channel KCNH2 (Q12809 whole entry): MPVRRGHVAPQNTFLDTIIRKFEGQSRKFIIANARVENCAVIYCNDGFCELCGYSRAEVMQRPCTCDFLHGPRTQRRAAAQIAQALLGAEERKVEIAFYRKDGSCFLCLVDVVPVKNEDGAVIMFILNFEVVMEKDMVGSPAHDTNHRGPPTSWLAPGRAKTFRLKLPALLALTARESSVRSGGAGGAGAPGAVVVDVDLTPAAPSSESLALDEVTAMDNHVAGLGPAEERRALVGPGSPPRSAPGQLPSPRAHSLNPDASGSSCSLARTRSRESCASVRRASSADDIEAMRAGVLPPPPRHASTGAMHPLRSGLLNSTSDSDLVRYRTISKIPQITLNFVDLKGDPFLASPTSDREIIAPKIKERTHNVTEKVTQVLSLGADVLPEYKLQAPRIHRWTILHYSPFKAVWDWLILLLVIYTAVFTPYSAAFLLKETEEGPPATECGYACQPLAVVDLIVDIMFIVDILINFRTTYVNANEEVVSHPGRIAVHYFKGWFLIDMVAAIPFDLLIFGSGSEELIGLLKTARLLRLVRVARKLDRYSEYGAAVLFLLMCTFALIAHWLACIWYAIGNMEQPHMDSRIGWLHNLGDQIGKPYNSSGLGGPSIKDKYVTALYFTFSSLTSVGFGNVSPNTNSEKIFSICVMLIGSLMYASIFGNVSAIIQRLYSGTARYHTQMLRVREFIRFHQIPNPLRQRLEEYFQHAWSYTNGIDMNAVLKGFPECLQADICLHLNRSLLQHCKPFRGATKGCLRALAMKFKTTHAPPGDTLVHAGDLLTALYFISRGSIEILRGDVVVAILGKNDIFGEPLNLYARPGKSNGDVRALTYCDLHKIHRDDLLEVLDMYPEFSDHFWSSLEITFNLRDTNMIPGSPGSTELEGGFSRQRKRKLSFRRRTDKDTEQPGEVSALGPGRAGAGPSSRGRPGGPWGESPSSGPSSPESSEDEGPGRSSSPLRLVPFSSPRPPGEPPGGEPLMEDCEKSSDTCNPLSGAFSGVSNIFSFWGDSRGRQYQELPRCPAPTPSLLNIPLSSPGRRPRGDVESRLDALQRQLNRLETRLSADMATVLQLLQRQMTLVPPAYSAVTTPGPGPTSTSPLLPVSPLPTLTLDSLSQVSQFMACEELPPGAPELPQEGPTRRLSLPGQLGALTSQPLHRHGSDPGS
Sequence of hERG (KCNH2) (Q12809 whole entry): as above

Structure (SMILES): O=C(NCCN1CCCC1)c1ccc(CN2CCC(NC(=O)c3cc(=O)c4ccc(F)cc4o3)CC2)c(Cl)c1
- IC50 [1]: 11 µM

Structure (SMILES): O=C(CCN1CCCCC1)Nc1ccc(CN2CCC(NC(=O)c3cc(=O)c4ccc(F)cc4o3)CC2)cc1F
- IC50 [1]: 9.18 µM

Structure (SMILES): O=C(NC1CCN(Cc2ccc(C(=O)NCCN3CCCC3)c(F)c2)CC1)c1cc(=O)c2ccc(F)cc2o1
- inhibition at 30 µM [2]: 21%
- AUC(0-inf) [3]: 3150 ng·h/mL
- Cmax [4]: 598 ng/mL
- concentration at 12 h [5]: 38 ng/mL
- half-life [6]: 2 h
- AUC [7]: 1378 ng·h/g
- Cmax [8]: 185 ng/g
- concentration at 12 h [9]: 75 ng/g
- half-life [10]: 8 h
- IC50 [1]: > 100 µM

Structure (SMILES): COC(C)(C)CCOc1ccc(CN2CCC(NC(=O)c3cc(=O)c4ccc(F)cc4o3)CC2)cc1
- IC50 [1]: 4.3 µM

Structure (SMILES): O=C(NC1CCN(Cc2ccc(OCCCN3C(=O)CSC3=O)c(F)c2)CC1)c1cc(=O)c2ccc(F)cc2o1
- IC50 [1]: 8.5 µM

Structure (SMILES): COc1cc(C(=O)NCCN2CCCC2)ccc1CN1CCC(NC(=O)c2cc(=O)c3ccc(F)cc3o2)CC1
- IC50 [1]: 6.6 µM
